Assays:
[1] = system: glycosaminoglycan production; experiment: Synthesis of glycosaminoglycans after allantoin administration; format: cell-based
elastin = experiment: Elastin synthesis after allantoin administration; format: cell-based
[2] = system: pro-collagen synthesis in Hs27/HEK001 cells; experiment: Pro-Collagen Synthesis In Vitro Assay (Procollagen ELISA); format: cell-based, human
Experimental: Hs27/HEK001 cells are plated at 10,000/40,000 cells per well of 96-well plate. Hs27 cells are normal human fibroblasts derived from a foreskin source. […] cells are a human epidermal cell line that originally was derived from human scalp keratinocytes. […] Hs27/HEK001 cells are allowed to attach overnight. Following overnight incubation, media is removed from the wells and replaced with 100 μl fresh media.
After overnight incubation, the test samples are added to wells in triplicate to final concentrations of 1, 10, and 100 μg/ml. The cells with test sample added are incubated overnight and supernatants are collected for analysis using a Procollagen ELISA kit from Takara Bio, Inc. (Japan). The EC50 concentration for each test sample is monitored and recorded to evaluate variability over time.
Controls for this assay include administration of 0.1, 1, and 10 μg/ml ascorbic acid and all-trans-retinoic acid to H27/HEK cells. Untreated cells also are used as a negative control. It generally is known that ascorbic acid increases pro-collagen synthesis by approximately 15-20% compared to untreated control.

[3] = system: pro-collagen synthesis in Hs27/HEK001 cells; settings: generally known value for the control substance; cited from earlier work

NC(=O)NC1NC(=O)NC1=O (centres unmarked) [Allantoin, 2,5-dioxy-4-imidazolidinyl urea]
Glycosaminoglycan synthesis, percent of untreated control ([1]; allantoin at 100 μg/ml): 111.2% | average increase in glycosaminoglycan production ([1]; at 100 μg/ml): 11.2% | Elastin synthesis, percent of untreated control (elastin; allantoin at 100 μg/ml): 106.2% | average increase in elastin (elastin; at 100 μg/ml): 6.2% | Pro-collagen synthesis, percent of untreated control ([2]; allantoin at 100 μg/ml, average of triplicate wells): 124.1% | average increase in pro-collagen synthesis ([2]; at 100 μg/ml): 24.1% | dose dependence of pro-collagen synthesis ([2]; final concentrations of 1, 10, and 100 μg/ml): dose-dependent increase in pro-collagen synthesis

O=C1O[C@H]([C@@H](O)CO)C(O)=C1O [ascorbic acid]
increase in pro-collagen synthesis compared to untreated control [3]: 15-20%
